These results are taken from patent publication US20250230226A1, “PLXDC1/PLXDC2 ACTIVATORS AND THEIR USE IN THE TREATMENT OF BLOOD VESSEL DISORDERS” (THE REGENTS OF THE UNIVERSITY OF CALIFORNIA, priority 2019, published 2025).

In the test the test system is LL/2 lung cancer tumor endothelial cells. Kind of test: Lung LL2 ex vivo model of tumor angiogenesis. Conditions: for 48 hrs (morphology observations): LL/2 tumor endothelial cells; for Cell death: drug treatment for two days, ratio of red area to total endothelial cell area. The class given is cell-based, mouse. Here is the method:
An ex vivo tumor angiogenesis model was developed to test the efficacy of anti-cancer candidate agents. The following protocol describes the Ex Vivo Tumor Angiogenesis Model.
• 1. The day before the experiment, all necessary tools were sprayed with 70% ethanol and sterilized under UV light overnight, including blade, dissecting and micro-dissecting scissors and […]. 24-well dishes were placed at 4° C. to pre-chill plates and Matrigel was thawed, 24 hours before tumor dissection. • 2. 70% ethanol was sprayed on working bench. Two sterile petri dishes were prepared with 10 ml sterile PBS. The following steps 3 and 4 are necessary for mouse tumor models. For fresh human tumor, steps 3 and 4 are skipped. • 3. The tumor-bearing mice were euthanized. 70% ethanol was sprayed on the mouse and the tumor was removed using sterilized dissecting tools (avoid the fur). The tumor was rinsed in petri dish with sterile PBS to remove ethanol and fur. The tumor was transferred to a new petri dish with PBS for dissection. The dish is placed on ice. • 4. Pre-chilled sterile pipet tips were used to seed regular Matrigel in 24 well plates on ice. Matrigel (30 μl) was dropped in the middle of each well without touching the edge of the well (avoid introducing bubbles if possible). • 5. The tumor was cut in halves using the sterile blade. Healthy tumor tissue that is not necrotic and is within the tumor capsule was identified and isolated. The healthy tumor tissue was cut into small pieces. For instance, a suitable size for the tumor tissue is 0.5 mm (H)×0.5 mm (L)×0.3 mm (D) with a total volume of 0.075 mm^3. • 6. Each tumor piece was gently transferred and embedded in the Matrigel drop in the 24-well plate. The embedded piece was placed in the bottom and middle of each Matrigel drop. The plate was kept on ice all the time. • 7. After seeding the tumor pieces, plates were incubated in a 37° C. cell culture incubator without medium for 10 minutes in order for the Matrigel to solidify. • 8. Endothelial Growth Medium (0.5 ml) was added to each well and incubated at 37° C. with 5% CO2. Treatment was not added until the new endothelial cells was grown out of the tumor or were larger than 3 mm in diameter. This usually takes 4 days for the LL2 Lewis lung cancer model and 7 days for the CT26 colon cancer model. For human tumor models, the growth time is typically 2-3 weeks, depending on the tumor type. Media was changed every 4 days during prolonged culture. Typically, when the tumor tissue grows to 2 mm in diameter, it was good for drug testing. A size of about 3 mm in diameter can make visualization easier. • 9. When the assay was ready to be analyzed for cell death (e.g., 48 hours after drug addition), the dye mixture was prepared by mixing 6 μl of green dye to stain live cells (5 mg/ml Fluorescein diacetate or FDA in DMSO) with 30 μl of red dye (2.5 mg/ml Propidium iodide or PI in PBS) to stain dead cells in an Eppendorf tube. The FDA dye needs to be stored frozen in a −20° C. freezer because it has a labile ester bond. • 10. 1 μl of the dye mixture was added to each well of the 24-well dish. It is usually preferred to do one 24-well dish at a time given the amount of time needed to take pictures (the green dye is not as stable in the cells in the long term). • 11. The dish was gently rocked a few times to mix the dye with the media in the wells and incubate the dish at 37° C. for 10 min (too long incubation can make the green signal too intense). • 12. Each well was washed with 0.5 ml of sterile PBS and then 0.5 ml of phenol red free SFM was added to each well. Alternatively 0.5 ml of regular Endothelial Cell Growth Media can be added to each well if this well needs to be continuously maintained after the experiment. • 13. An inverted microscope using the 2× objective lens was used to observe morphological changes in the experimental wells. • 14. […]

[1] abbreviates: Mus musculus, Endothelial cell, 48 h, read-out: Cell death.

Take `CCCCCCCOc1ccc(S(=O)(=O)c2cnc3ccc(SC)cc3c2N2CCN(CC3CCN(Cc4ccccc4)CC3)CC2)cc1` [Compound 275]: for the setting “20 μm”, the “48 hrs (morphology observations)” value was determined as 0 and the Cell death stood at 5%. As to `CCOC(=O)c1ccc2ncc(S(=O)(=O)c3ccc(OC)cc3)c(-n3cnnn3)c2c1` [Compound 185], where the note is “10 μm”, the “48 hrs (morphology observations)” value is recorded as “* (50% or less of cells vesicularize in cell shape)” and the Cell death was found to be 30%. With `COc1ccc(S(=O)(=O)c2cnc3ccc(CC#N)cc3c2N2CCC(N3CCCCC3)CC2)cc1` [Compound 115], the “48 hrs (morphology observations)” value (20 μm) is listed as 0. In addition, under setting [1], the cytotoxicity at 20 µM is 10%. With `CCCCCCCCCCCCOc1ccc(S(=O)(=O)c2cnc3ccc([S+](C)[O-])cc3c2N2CCC(N3CCC(N4CCC(O)CC4)CC3)CC2)cc1F` (stereo not drawn) [Compound 372], the Cell death (20 μm) is on record as 20%. On to `COc1ccc(S(=O)(=O)c2cnc3ccc(C(=O)N(C)C)cc3c2N2CCC(N3CCCCC3)CC2)cc1` [Compound 331], for which, under “40 μm”, the “48 hrs (morphology observations)” value amounted to 0 and the Cell death stood at 10%. The corresponding values for `COc1ccc(S(=O)(=O)c2cnc3cc(OC)c(OC)cc3c2N2CCCN(CC3(O)CCCC3)CC2)cc1` [Compound 325] are “* (50% or less of cells vesicularize in cell shape)” and 30%. For `COc1ccc(S(=O)(=O)c2cnc3cc(OC)c(OC)cc3c2N2C[C@@H]3C[C@H]2CN3C)cc1` [Compound 306], the “48 hrs (morphology observations)” value (40 μm) amounted to 0. Also, the cytotoxicity at 40 µM under setting [1] was 40%. As to `COc1ccc(S(=O)(=O)c2cnc3ccc([S+](C)[O-])cc3c2NN2CCN(C)CC2)cc1` (stereo not drawn) [Compound 227], for the setting “40 μm”, the “48 hrs (morphology observations)” value worked out at 0 and the Cell death is reported as 10%. As for `CNC(=O)c1ccc2ncc(S(=O)(=O)c3ccc(OC)cc3)c(N3CCC(N4CCCC4CO)CC3)c2c1` (stereo not drawn) [Compound 336], for the setting “40 μm”, the “48 hrs (morphology observations)” value turned out to be 0 and the Cell death was 0%.

Regarding `CCCCOc1ccc(S(=O)(=O)c2cnc3ccc(OC(F)(F)F)cc3c2N2CCSCC2)cc1` [Compound 187], where the note is “40 μm”, the “48 hrs (morphology observations)” value was found to be 0 and the Cell death is recorded as 30%. For `COc1ccc(S(=O)(=O)c2cnc3cc(OC)c(OC)cc3c2N2CCC(=O)N(C)CC2)cc1` [Compound 328] the same measures were 0 and 30%.

As for `CCCCCCCCCCCCOc1ccc(S(=O)(=O)c2cnc3ccc([S+](C)[O-])cc3c2N2CCC(N3CCC(N4CCN(C)CC4)CC3)CC2)cc1` (stereo not drawn) [Compound 341], under “20 μm”, the “48 hrs (morphology observations)” value is “*** (more than 50% but less than 100% of endothelial cells vesicularize in cell shape)” and the Cell death is 80%. Take `CCCCCCCOc1ccc(S(=O)(=O)c2cnc3ccc(SC)cc3c2N2CCCN(CCN3CCCCC3)CC2)cc1` [Compound 248]: for the setting “20 μm”, the “48 hrs (morphology observations)” value is “* (50% or less of cells vesicularize in cell shape)” and the Cell death is given as 60%. `CCCCCCCOc1ccc(S(=O)(=O)c2cnc3ccc([S+](C)[O-])cc3c2N2CCN(C3CCN(CC)CC3)CC2)cc1` (stereo not drawn) [Compound 277]: the cytotoxicity at 10 µM under setting [1] was determined as 60%. In the case of `CCCCOc1ccc(S(=O)(=O)c2cnc3ccc(C(=O)OCC)cc3c2N2CCC(N3CCN(C)CC3)CC2)cc1` [Compound 172], where the note is “40 μm”, the “48 hrs (morphology observations)” value was “**** (100% of endothelial cells vesicularize in cell shape and look flattened in morphology (indicating disintegration of the cell body))”; the Cell death turned out to be 100%. Consider `CCCCCCCOc1ccc(S(=O)(=O)c2cnc3ccc(SC)cc3c2N2CCN(CCN3CCCCC3)CC2)cc1` [Compound 281], for which, for the setting “20 μm”, the Cell death worked out at 50%. Regarding `CCCCOc1ccc(S(=O)(=O)c2cnc3ccc(SC)cc3c2N2CCC(N3CCN(CCO)CC3)CC2)cc1` [Compound 230], under “40 μm”, the “48 hrs (morphology observations)” value was “*** (more than 50% but less than 100% of endothelial cells vesicularize in cell shape)”. Under setting [1], the cytotoxicity at 40 µM came out at 100%. Regarding `COc1ccc(S(=O)(=O)c2cnc3ccc(C(=O)N(C)C)cc3c2N2CCC(N3CCCC3=O)CC2)cc1` [Compound 332], under “40 μm”, the “48 hrs (morphology observations)” value came to 0 and the Cell death stood at 0%. As for `COc1ccc(S(=O)(=O)c2cnc3cc(OC)c(OC)cc3c2N2CCC(c3ccc(CN4CCCC4)cc3)CC2)cc1` [Compound 312], for the setting “40 μm”, the “48 hrs (morphology observations)” value was “**** (100% of endothelial cells vesicularize in cell shape and look flattened in morphology (indicating disintegration of the cell body))”; the Cell death is reported as 100%. Take `COc1ccc(S(=O)(=O)c2cnc3ccc(OC(F)(F)F)cc3c2NCCO)cc1OC` [Compound 73]: the Cell death (40 μm) was 10%. As to `CCCCCCCCCCCCCCOc1ccc(S(=O)(=O)c2cnc3ccc([S+](C)[O-])cc3c2N2CCC(N3CCC(N4CCN(CCO)CC4)CC3)CC2)cc1F` (stereo not drawn) [Compound 368], the Cell death (20 μm) is given as 20%. Consider `COc1ccc(S(=O)(=O)c2cnc3cc(OC)c(OC)cc3c2N2CCCN(C3COC3)CC2)cc1` [Compound 326], for which, for the setting “40 μm”, the “48 hrs (morphology observations)” value was determined as 0 and the Cell death stood at 30%. Regarding `CCCCOc1ccc(S(=O)(=O)c2cnc3ccc([S+](C)[O-])cc3c2N2CCC(N3CCSCC3)CC2)cc1` (stereo not drawn) [Compound 245], for the setting “40 μm”, the “48 hrs (morphology observations)” value was 0 and the Cell death came to 40%. As to `CCCCCCCCCCCCCCOc1ccc(S(=O)(=O)c2cnc3ccc([S+](C)[O-])cc3c2N2CCC(N3CCC(N4CCCCC4)CC3)CC2)cc1F` (stereo not drawn) [Compound 366], where the note is “20 μm”, the “48 hrs (morphology observations)” value turned out to be 0 and the Cell death is 10%. Turning to `CCCCCCCOc1ccc(S(=O)(=O)c2cnc3ccc([S+](C)[O-])cc3c2N2CCN(CCN3CCCCC3)CC2)cc1` (stereo not drawn) [Compound 282], for the setting “10 μm”, the “48 hrs (morphology observations)” value is 0 and the Cell death amounted to 10%. With `CCCCOc1ccc(S(=O)(=O)c2cnc3ccc(C(=O)OCC)cc3c2N2CCC(N3CCCC(O)C3)CC2)cc1` (stereo not drawn) [Compound 177], for the setting “40 μm”, the “48 hrs (morphology observations)” value was “**** (100% of endothelial cells vesicularize in cell shape and look flattened in morphology (indicating disintegration of the cell body))”; the Cell death worked out at 100%. With `CCCCCCCCCCOc1ccc(S(=O)(=O)c2cnc3ccc([S+](C)[O-])cc3c2N2CCC(N3CCN(C)CC3)CC2)cc1` (stereo not drawn) [Compound 264], for the setting “10 μm”, the “48 hrs (morphology observations)” value was “* (50% or less of cells vesicularize in cell shape)” and the Cell death is listed as 20%. As to `COc1ccc(S(=O)(=O)c2cnc3cc(OC)c(OC)cc3c2N2CCC(N3CCCCC3)CC2)cc1` [Compound 320], where the note is “40 μm”, the “48 hrs (morphology observations)” value was 0 and the Cell death is 30%. The corresponding values for `CCCCOc1ccc(S(=O)(=O)c2cnc3ccc(SC)cc3c2N2CCC(N3CCSCC3)CC2)cc1` [Compound 243] are 0 and 20%.

As to `CCCCOc1ccc(S(=O)(=O)c2cnc3ccc(OC(F)(F)F)cc3c2N2CC[S+]([O-])CC2)cc1` [Compound 197], for the setting “40 μm”, the “48 hrs (morphology observations)” value is recorded as 0 and the Cell death is 20%. `CCc1ccc(S(=O)(=O)c2cnc3ccc(OC(F)(F)F)cc3c2Nc2ccncc2)cc1` [Compound 107]: under “20 μm”, the “48 hrs (morphology observations)” value worked out at 0 and the Cell death is listed as 0%.
